Laboratory results from patent US20230286970A1, “NOVEL OXADIAZOLE-BASED SELECTIVE HDAC6 INHIBITORS” (ITALFARMACO S.P.A., priority 2020, published 2023).

Columns and labels:
recombinant human HDAC6 = recombinant human HDAC6 (Homo sapiens (Human), UniProt Q9UBN7); experiment: Enzymatic screening, HDAC6 inhibition (fluorogenic FdL_G substrate); type: biochemical
Method in brief: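 Enzyme was preincubated with compound (8 doses, triplicate, 1% DMSO) in 25 mM Tris-HCl pH 8, 130 mM NaCl, 0.05% Tween-20, 10% glycerol, with BSA. A FLUOR DE LYS-Green substrate was then added, and fluorescence was read after developer plus 2 μM TSA.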

recombinant human HDAC1 = recombinant human HDAC1 (Homo sapiens (Human), UniProt Q13547); experiment: Enzymatic screening, HDAC1 inhibition (fluorogenic FdL_G substrate); type: biochemical
Method in brief: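 Recombinant human HDAC1 inhibition was measured fluorometrically using the FLUOR DE LYS-Green (FdL_G) substrate. Compounds at 8 doses (1% DMSO final) in Tris-HCl pH 8 buffer with NaCl, Tween-20 and glycerol were preincubated in triplicate with enzyme and 1 mg/mL BSA, then given substrate. Developer I plus 2 μM TSA was added, and fluorescence read after 25 minutes in the dark.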

recombinant human HDAC1, sequence (Q13547 whole entry): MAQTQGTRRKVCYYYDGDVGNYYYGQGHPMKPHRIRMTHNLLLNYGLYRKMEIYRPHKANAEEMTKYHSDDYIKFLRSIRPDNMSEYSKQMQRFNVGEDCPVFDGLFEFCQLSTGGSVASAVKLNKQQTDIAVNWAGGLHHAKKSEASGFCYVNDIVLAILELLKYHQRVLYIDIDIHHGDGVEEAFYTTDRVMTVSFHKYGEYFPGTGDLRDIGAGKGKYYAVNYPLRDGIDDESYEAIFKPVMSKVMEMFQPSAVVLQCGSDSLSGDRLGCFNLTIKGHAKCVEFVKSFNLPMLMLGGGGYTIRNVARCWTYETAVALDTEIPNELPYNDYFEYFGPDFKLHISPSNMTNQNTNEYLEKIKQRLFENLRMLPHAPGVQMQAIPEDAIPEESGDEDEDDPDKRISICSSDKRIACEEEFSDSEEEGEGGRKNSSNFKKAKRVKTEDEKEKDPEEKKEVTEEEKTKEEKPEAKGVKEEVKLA
recombinant human HDAC6, sequence (Q9UBN7 whole entry): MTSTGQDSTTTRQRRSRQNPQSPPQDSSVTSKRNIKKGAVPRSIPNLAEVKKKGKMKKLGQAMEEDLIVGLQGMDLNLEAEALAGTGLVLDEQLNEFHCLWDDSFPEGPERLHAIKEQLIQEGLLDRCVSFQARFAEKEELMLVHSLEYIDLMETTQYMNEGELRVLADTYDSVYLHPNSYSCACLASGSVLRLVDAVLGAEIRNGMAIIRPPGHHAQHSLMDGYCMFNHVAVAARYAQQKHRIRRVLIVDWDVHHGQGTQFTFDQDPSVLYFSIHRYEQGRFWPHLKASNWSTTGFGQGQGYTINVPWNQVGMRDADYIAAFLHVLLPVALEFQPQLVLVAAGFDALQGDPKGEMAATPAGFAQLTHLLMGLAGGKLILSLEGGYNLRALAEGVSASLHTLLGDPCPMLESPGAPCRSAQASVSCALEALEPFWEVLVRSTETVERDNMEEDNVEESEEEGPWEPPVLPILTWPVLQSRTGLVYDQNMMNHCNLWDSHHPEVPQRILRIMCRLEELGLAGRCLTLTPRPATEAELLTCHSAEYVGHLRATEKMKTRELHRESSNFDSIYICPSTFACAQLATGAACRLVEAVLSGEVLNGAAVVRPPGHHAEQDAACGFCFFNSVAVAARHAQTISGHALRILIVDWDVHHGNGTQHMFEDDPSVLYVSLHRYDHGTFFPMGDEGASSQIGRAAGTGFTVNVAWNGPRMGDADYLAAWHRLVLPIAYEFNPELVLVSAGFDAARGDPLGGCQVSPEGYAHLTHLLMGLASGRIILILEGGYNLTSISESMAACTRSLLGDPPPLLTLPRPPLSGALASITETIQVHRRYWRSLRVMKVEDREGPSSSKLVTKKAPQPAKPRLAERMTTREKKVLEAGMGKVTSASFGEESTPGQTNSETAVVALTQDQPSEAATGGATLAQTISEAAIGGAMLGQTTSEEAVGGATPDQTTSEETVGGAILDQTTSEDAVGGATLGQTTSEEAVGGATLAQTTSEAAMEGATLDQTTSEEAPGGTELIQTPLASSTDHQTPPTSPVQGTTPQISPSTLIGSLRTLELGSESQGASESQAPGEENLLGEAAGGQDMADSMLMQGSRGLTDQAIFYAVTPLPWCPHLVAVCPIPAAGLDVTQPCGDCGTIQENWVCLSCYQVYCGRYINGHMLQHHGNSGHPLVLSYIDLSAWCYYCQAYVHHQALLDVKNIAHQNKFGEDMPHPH

IC50 (recombinant human HDAC6)	IC50 (recombinant human HDAC1)	SMILES
0.032 µM	> 1000 µM	Nc1nc2ccc(-c3cn(Cc4ncc(-c5nnc(C(F)F)o5)cc4F)nn3)cc2s1 [compound 342, 6-[1-[[5-[5-(difluoromethyl)-1,3,4-oxadiazol-2-yl]-3-fluoropyridin-2-yl]methyl]triazol-4-yl]-1,3-benzothiazol-2-amine]
0.061 µM	> 200 µM	O=C(Nc1cccc(-c2nc(Cc3c(F)cc(-c4nnc(C(F)F)o4)cc3F)no2)c1)N1CCOCC1 [Compd. 145, N-(3-(3-(4-(5-(difluoromethyl)-1,3,4-oxadiazol-2-yl)-2,6-difluorobenzyl)-1,2,4-oxadiazol-5-yl)phenyl)morpholine-4-carboxamide]
0.286 µM	> 200 µM	CC(C)(C)OC(=O)N1CCC2(CC1)Nc1ccc(-c3cn(Cc4ccc(-c5nnc(C(F)F)o5)cc4)nn3)cc1NC2=O [compound 279, tert-butyl 6′-(1-(4-(5-(difluoromethyl)-1,3,4-oxadiazol-2-yl)benzyl)-1H-1,2,3-triazol-4-yl)-3′-oxo-3′,4′-dihydro-1′H-spiro[piperidine-4,2′-quinoxaline]-1-carboxylate]
0.025 µM	> 200 µM	CN1CCN(c2cccc(-c3nnn(Cc4ccc(-c5nnc(C(F)F)o5)cc4)n3)c2)CC1 [compound 58, 2-(difluoromethyl)-5-(4-((5-(3-(4-methylpiperazin-1-yl)phenyl)-2H-tetrazol-2-yl)methyl)phenyl)-1,3,4-oxadiazole]
0.048 µM	178 µM	Cn1c(N)nc2cc(-c3cn(Cc4ncc(-c5nnc(C(F)F)o5)cc4F)nn3)ccc21 [compound 349, 5-[1-[[5-[5-(difluoromethyl)-1,3,4-oxadiazol-2-yl]-3-fluoropyridin-2-yl]methyl]triazol-4-yl]-1-methylbenzimidazol-2-amine]
0.085 µM	1000 µM	Nc1cc2cc(-c3cn(Cc4cc(F)c(-c5nnc(C(F)F)o5)cc4F)nn3)ccc2cn1 [compound 406, 6-[1-({4-[5-(difluoromethyl)-1,3,4-oxadiazol-2-yl]-2,5-difluorophenyl}methyl)-1H-1,2,3-triazol-4-yl]isoquinolin-3-amine]
0.125 µM	1000 µM	CNc1ccc2cc(-c3nnn(Cc4c(F)cc(-c5nnc(C(F)F)o5)cc4F)n3)ccc2n1 [compound 388, 6-(2-(4-(5-(difluoromethyl)-1,3,4-oxadiazol-2-yl)-2,6-difluorobenzyl)-2H-tetrazol-5-yl)-N-methylquinolin-2-amine]
0.161 µM	> 200 µM	NC(=O)c1cccc(-c2cn(Cc3ccc(-c4nnc(C(F)F)o4)cc3)cn2)c1 [compound 223, 3-(1-(4-(5-(difluoromethyl)-1,3,4-oxadiazol-2-yl)benzyl)-1H-imidazol-4-yl)benzamide]
0.021 µM	> 200 µM	O=C1Nc2ccc(-c3cn(Cc4ccc(-c5nnc(C(F)F)o5)cc4)nn3)cc2C12CCNC2 (stereo not shown) [compound 49, 5-(1-(4-(5-(difluoromethyl)-1,3,4-oxadiazol-2-yl)benzyl)-1H-1,2,3-triazol-4-yl)spiro[indoline-3,3′-pyrrolidin]-2-one]
0.026 µM	> 1000 µM	Cn1c(N)nc2cc(-c3nnn(Cc4ccc(-c5nnc(C(F)F)o5)cc4F)n3)ccc21 [compound 348, 5-[2-[[4-[5-(difluoromethyl)-1,3,4-oxadiazol-2-yl]-2-fluorophenyl]methyl]tetrazol-5-yl]-1-methylbenzimidazol-2-amine]
0.079 µM	> 200 µM	O=c1[nH]c2ccc(-c3nnn(Cc4ccc(-c5nnc(C(F)F)o5)cc4)n3)cc2[nH]1 [compound 168, 5-(2-(4-(5-(difluoromethyl)-1,3,4-oxadiazol-2-yl)benzyl)-2H-tetrazol-5-yl)-1,3-dihydro-2H-benzo[d]imidazol-2-one]
0.266 µM	> 200 µM	FC(F)c1nnc(-c2ccc(Cn3nnc(-c4cccc(-c5ccccc5)c4)n3)cc2)o1 [compound 246, 2-(4-((5-([1,1′-biphenyl]-3-yl)-2H-tetrazol-2-yl)methyl)phenyl)-5-(difluoromethyl)-1,3,4-oxadiazole]
0.038 µM	> 200 µM	O=C(Nc1cccc(-c2nnn(Cc3c(F)cc(-c4nnc(C(F)F)o4)cc3F)n2)c1)N1CCOCC1 [compound 98, N-(3-(2-(4-(5-(difluoromethyl)-1,3,4-oxadiazol-2-yl)-2,6-difluorobenzyl)-2H-tetrazol-5-yl)phenyl)morpholine-4-carboxamide]
0.446 µM	> 200 µM	FC(F)c1nnc(-c2ccc(Cn3nnnc3-c3ncccn3)cc2)o1 [compound 287, 2-(difluoromethyl)-5-(4-((5-(pyrimidin-2-yl)-1H-tetrazol-1-yl)methyl)phenyl)-1,3,4-oxadiazole]
0.04 µM	> 1000 µM	O=C1NCc2ccc(-c3cnn(Cc4ccc(-c5nnc(C(F)F)o5)cn4)c3)cc21 [compound 318, 6-[1-[[5-[5-(difluoromethyl)-1,3,4-oxadiazol-2-yl]pyridin-2-yl]methyl]pyrazol-4-yl]-2,3-dihydroisoindol-1-one]
0.215 µM	> 200 µM	CC(C)(C)OC(=O)N1CCn2ncc(-c3cccc(-c4nnn(Cc5ccc(-c6nnc(C(F)F)o6)cc5)n4)c3)c2C1 [compound 240, tert-butyl 3-(3-(2-(4-(5-(difluoromethyl)-1,3,4-oxadiazol-2-yl)benzyl)-2H-tetrazol-5-yl)phenyl)-6,7-dihydropyrazolo[1,5-a]pyrazine-5 (4H)-carboxylate]
0.234 µM	> 200 µM	Nc1ccc(-c2noc(C(F)(F)c3ccc(-c4nnc(C(F)F)o4)cc3)n2)cn1 [Compd. 243, 5-(5-((4-(5-(difluoromethyl)-1,3,4-oxadiazol-2-yl)phenyl)difluoromethyl)-1,2,4-oxadiazol-3-yl)pyridin-2-amine]
0.138 µM	> 1000 µM	CS(=O)(=O)NCC[C@@H](c1ccc(-c2nnc(C(F)F)o2)cc1)n1cc(-c2ccc(N)nc2)nn1 [compound 310, N-[(3S)-3-[4-(6-aminopyridin-3-yl)triazol-1-yl]-3-[4-[5-(difluoromethyl)-1,3,4-oxadiazol-2-yl]phenyl]propyl]methanesulfonamide]
0.065 µM	> 1000 µM	NC(=O)c1cccc(-c2cnn(Cc3ccc(-c4nnc(C(F)F)o4)cn3)c2)c1 [compound 334, 3-[1-[[5-[5-(difluoromethyl)-1,3,4-oxadiazol-2-yl]pyridin-2-yl]methyl]pyrazol-4-yl]benzamide]
0.039 µM	> 200 µM	FC(F)c1nnc(-c2ccc(Cn3nnc(-c4ccc(N5CCNCC5)cc4)n3)cc2)o1 [compound 103, 2-(difluoromethyl)-5-(4-((5-(4-(piperazin-1-yl)phenyl)-2H-tetrazol-2-yl)methyl)phenyl)-1,3,4-oxadiazole]
0.202 µM	> 200 µM	FC(F)c1nnc(-c2ccc(Cn3cc(-c4ccccc4)nn3)cc2)o1 [compd. 234, 2-(difluoromethyl)-5-(4-((4-phenyl-1H-1,2,3-triazol-1-yl)methyl)phenyl)-1,3,4-oxadiazole]
0.069 µM	> 1000 µM	Nc1nc2cc(-c3cn(Cc4ccc(-c5nnc(C(F)F)o5)cc4)cn3)ccc2o1 [compd. 309, 5-[1-[[4-[5-(difluoromethyl)-1,3,4-oxadiazol-2-yl]phenyl]methyl]imidazol-4-yl]-1,3-benzoxazol-2-amine]
0.049 µM	47.9 µM	Nc1ccc(-c2cn(C(CCN3CCCC3)c3ccc(-c4nnc(C(F)F)o4)cc3)nn2)cn1 (stereo not shown) [compound 323, 5-(1-(1-(4-(5-(difluoromethyl)-1,3,4-oxadiazol-2-yl)phenyl)-3-(pyrrolidin-1-yl)propyl)-1H-1,2,3-triazol-4-yl)pyridin-2-amine]
0.249 µM	1000 µM	Nc1nccc2cc(-c3nnn(Cc4ccc(-c5nnc(C(F)F)o5)cc4Cl)n3)ccc12 [compound 422, 6-(2-(2-chloro-4-(5-(difluoromethyl)-1,3,4-oxadiazol-2-yl)benzyl)-2H-tetrazol-5-yl)isoquinolin-1-amine]
0.352 µM	> 200 µM	FC(F)c1nnc(-c2ccc(Cn3nnc(-c4cccc(-c5cnc(N6CCOCC6)s5)c4)n3)cc2)o1 [compd. 253, 4-(5-(3-(2-(4-(5-(difluoromethyl)-1,3,4-oxadiazol-2-yl)benzyl)-2H-tetrazol-5-yl)phenyl)thiazol-2-yl)morpholine]
0.017 µM	199 µM	Cn1c(N)nc2cc(-c3cn(Cc4ccc(-c5nnc(C(F)F)o5)cc4F)nn3)ccc21 [compound 378, 5-[1-[[4-[5-(difluoromethyl)-1,3,4-oxadiazol-2-yl]-2-fluorophenyl]methyl]triazol-4-yl]-1-methylbenzimidazol-2-amine]
0.024 µM	168 µM	Cn1c(N)nc2cc(-c3cn(Cc4ccc(-c5nnc(C(F)F)o5)c(F)c4F)nn3)ccc21 [compound 345, 5-[1-[[4-[5-(difluoromethyl)-1,3,4-oxadiazol-2-yl]-2,3-difluorophenyl]methyl]triazol-4-yl]-1-methylbenzimidazol-2-amine]
0.06 µM	> 1000 µM	[2H]C([2H])(c1ccc(-c2nnc(C(F)F)o2)cc1)n1cc(-c2cccc(NC(=O)N3CCOCC3)c2)nn1 [compound 352, N-[3-[1-[dideuterio-[4-[5-(difluoromethyl)-1,3,4-oxadiazol-2-yl]phenyl]methyl]triazol-4-yl]phenyl]morpholine-4-carboxamide]
0.012 µM	> 1000 µM	Fc1cc(-c2nnc(C(F)F)o2)ccc1Cn1cnc(-c2ccc(NC3=NCCN3)cc2)c1 [compound 357, N-[4-[1-[[4-[5-(difluoromethyl)-1,3,4-oxadiazol-2-yl]-2-fluorophenyl]methyl]imidazol-4-yl]phenyl]-4,5-dihydro-1H-imidazol-2-amine]
